Assay [1] can be described thus: Reaction kinetics by fluorescence at varying concentrations of sensor or CO2. Conditions: dependence for both (I1) and carbon dioxide. The text has this: The reaction kinetics were investigated with the same compounds of Formulae (I1) and (I1b) by measuring fluorescence at different time points using varying concentrations of either (I1) or carbon dioxide.
Assay [2] concerns HeLa cells. In words: Cell imaging of CO2. The class given is cell-based. Conditions: 5 μM for 10 minutes; ambient air or 5% CO2; imaged at different time points. Here is the method: The selectivity of the compound (I4) was evaluated against common analytes in cells. HeLa cells were treated with compound (I4) [5 μM] for 10 minutes, followed by washing thrice to remove excess sensor. Then, as an exogenous CO2 model, the cells were incubated under ambient air or at 5% CO2 and imaged at different time points. […] In addition, time-dependent response of cells that were incubated under ambient conditions was attributed to basal levels of CO2 production by metabolic processes.

These results are taken from patent US20250093315A1, “MOLECULAR SENSORS, METHOD AND KIT FOR THE DETECTION AND QUANTIFICATION OF CARBON DIOXIDE” (ETH Zurich, priority 2022, published 2025).

For the compound `CCN(CC)c1ccc2c(NCc3ccccc3N=P(c3ccccc3)(c3ccccc3)c3ccccc3)cc(=O)oc2c1` [Compound (I1)], the reaction order result in assay [1] was “first-order dependence”.

In the case of `CN(C)c1ccc2c(NCc3ccccc3N=P(c3ccccc3)(c3ccccc3)c3ccccc3)c3ccc(=[N+](C)C)cc-3oc2c1` [(I4)], the “fluorescent signal in cells” value in assay [2] is “significant time-dependent fluorescent increase in the red channel and decrease in the green channel”.
